According to patent US20150164968A1, “Method of Producing Banana-Derived Composition and Biologically Active Substance Containing Same” (priority 2013, published 2015):

Experiment: Action of antioxidation, OXY Adsorbent Test (FREE)
Conditions: solution at 10 mg/ml in ultrapure water
Protocol: The banana-derived composition 4 (the secondary refined product) as the biologically active substance and vitamin C were dissolved in ultrapure water to prepare solutions each at a concentration of 10 mg/ml. An antioxidation ability was measured twice for each of the prepared solutions. In detail, the antioxidation ability against oxidation through hypochlorous acid (HClO) was measured by means of Free Radical Elective Evaluator (FREE) manufactured by […] Co., Ltd. Oxygen (OXY) Adsorbent Test was applied to the measurement. As a result of the measurement, a concentration of HClO neutralized is obtained in the unit of μmol HClO/mL. A higher concentration value means a better HClO neutralization ability, that is to say, a stronger antioxidative action.

O=C1O[C@H]([C@@H](O)CO)C(O)=C1O [Vitamin C, vitamin C]
concentration of HClO neutralized, 1st measurement: 71.7 μmol HClO/mL | concentration of HClO neutralized, 2nd measurement: 79.7 μmol HClO/mL | concentration of HClO neutralized, Average (average of two measurements): 75.7 μmol HClO/mL
